Active and inactive are the calls of the source. No cut-off for these calls is given here. Non-standard residues stand in square brackets, D forms with d. Residues, ends and D or L forms follow the SMILES beside them. Aad = N[C@@H](CCCC(=O)O)C(=O)O
Key:
MCF7 [1] = test: Induction of apoptosis in human MCF7 cells assessed as late apoptotic cells at 1 times IC50 measured after 24 hrs by Annexin V-FITC staining based flow cytometry analysis (reference value: 1.60%); type: functional
4T1 = test: Antitumor activity against mouse 4T1 cells implanted in female Balb/c mouse assessed as reduction in tumor weight at 12 micromol/kg, ip administered every other day for 2 weeks and measured every 2 days relative to control; type: functional; design: scale not given: the % may be the effect or the level left; details: dose 12 µmol/kg
[2] = Cytotoxicity against RG cells (unknown origin) assessed as inhibition of cell growth incubated for 1 hr by MTT assay; type: functional, cell-based
[3] = Acute toxicity in female Balb/c mouse assessed as lung damage at approximately LD50 administered as single ip dose by H and E staining based analysis; type: organism-based; details: in vivo
Cell membrane [4] = test: Disruption of cell membrane in human MCF7 cells assessed as LDH release at 2.5 to 40 uM incubated for 1 hr by fluorescence based microplate reader analysis; type: cell membranes; details: dose 2.5-40 µM
[5] = Toxicity in female Balb/c mouse implanted with mouse 4T1 cells assessed as pathological changes in spleen at 12 micromol/kg, ip administered every other day for 2 weeks by H and E staining based analysis; type: organism-based; details: in vivo, 336 h, dose 12 µmol/kg
Cell membrane [6] = test: Disruption of cell membrane integrity in human MCF7 cells assessed as increase in PI fluorescence at 2 times IC50 measured after 0 to 120 mins by laser confocal scanning microscopic analysis; type: cell membranes; details: time 0-120 min
MCF7 [7] = test: Induction of apoptosis in human MCF7 cells assessed as increase in intracellular ROS generation at 1 times IC50 measured after 0 to 360 mins by DCFH-DA staining based analysis; type: functional, cell-based; details: time 0-360 min
MCF7 [8] = test: Cytotoxicity against human MCF7 cells assessed as cell viability at 2 times IC50 measured for 30 mins by MTT assay relative to control; type: functional; details: 0.5 h
[9] = Toxicity in female Balb/c mouse implanted with mouse 4T1 cells assessed as reduction in body weight at 12 micromol/kg, ip administered every other day for 2 weeks and measured every 2 days; type: organism-based; details: in vivo, 336 h, dose 12 µmol/kg
[10] = Toxicity in female Balb/c mouse implanted with mouse 4T1 cells assessed as pathological changes in liver at 12 micromol/kg, ip administered every other day for 2 weeks by H and E staining based analysis; type: organism-based; details: in vivo, 336 h, dose 12 µmol/kg
MCF7 [11] = test: Cytotoxicity against human MCF7 cells assessed as reduction in cell survival at 0.5 to 1 times IC50 incubated for 24 hrs in presence of 1 uM paclitaxel by MTT assay; type: functional, cell-based
Cell membrane [12] = test: Disruption of cell membrane in human MCF7 cells assessed as LDH release at 40 uM incubated for 1 hr by fluorescence based microplate reader analysis relative to control; type: cell membranes
[13] = Acute toxicity in female Balb/c mouse assessed as cellular swelling in spleen at approximately LD50 administered as single ip dose by H and E staining based analysis; type: organism-based; details: in vivo
[14] = Toxicity in female Balb/c mouse implanted with mouse 4T1 cells assessed as animal death at 12 micromol/kg, ip administered every other day for 2 weeks; type: organism-based; details: in vivo, 336 h, dose 12 µmol/kg
MCF7 [15] = test: Induction of cell cycle arrest at G0/G1 phase in human MCF7 cells at 1 times IC50 measured after 24 hrs by PI/RNase staining based flow cytometry analysis; type: functional
[16] = Acute toxicity in ip dosed female Balb/c mouse administered as single dose and measured for 7 days by karber method; type: organism-based; details: in vivo, time 7 day
[17] = Therapeutic index, ratio of HC10 for mouse RBC to IC50 for cytotoxicity against human MCF7 cells; type: toxicity, cell-based; details: mouse RBC and MCF7 cells, read-out: TI
Cell membrane [18] = test: Disruption of cell membrane integrity in human MCF7 cells assessed as increase in PI fluorescence at 1 times IC50 by laser confocal scanning microscopic analysis; details: time 0-120 min, TDE = time-dependent effect
Cell membrane [19] = test: Induction of morphological changes in cell membrane of human MCF7 cells assessed as severe membrane rupture at 1 times IC50 incubated for 1 hr by SEM analysis; type: cell membranes
Cell membrane [20] = test: Induction of cell membrane damage in human MCF7 cells assessed as nucleic acid leakage at 1 to 2 times IC50 measured after 0.5 to 6 hrs by UV based analysis; type: cell membranes; details: time 0.5-6 hrs
MCF7 [21] = test: Cytotoxicity against human MCF7 cells assessed as cell death at 1 times IC50 measured within 30 mins by MTT assay relative to control; type: functional; details: 0.5 h
MCF7 [22] = test: Anti-invasion activity in human MCF7 cells assessed as reduction in number of passing cells on polycarbonate membrane at 1 times IC50 measured after 24 hrs by crystal violet staining based transwell assay; type: functional, cell-based
[23] = Toxicity in female Balb/c mouse implanted with mouse 4T1 cells assessed as pathological changes in heart at 12 micromol/kg, ip administered every other day for 2 weeks by H and E staining based analysis; type: organism-based; details: in vivo, 336 h, dose 12 µmol/kg
MCF7 [24] = test: Antimigratory activity in human MCF7 cells assessed as reduction in cell migration at 1 times IC50 measured after 24 hrs by scratch-wound healing assay; type: functional, cell-based
Cell membrane [25] = test: Induction of morphological changes in cell membrane of human MCF7 cells assessed as intracellular outflow at 1 times IC50 incubated for 1 hr by SEM analysis; type: cell membranes
[26] = Therapeutic index, ratio of HC10 for mouse RBC to IC50 for cytotoxicity against human HeLa cells; type: toxicity, cell-based; details: mouse RBC and HeLa cells, read-out: TI
[27] = Stability in mouse serum assessed as compound remaining at 10 mM incubated for 12 hrs by RP-HPLC analysis; type: ADME, cell-free; details: read-out: Stability
[28] = Drug uptake in human MCF7 cells at 5 uM incubated for 1 hr by laser confocal scanning microscopic analysis; type: ADME, cell-based; details: mcf7, 1 h
Cell membrane [29] = test: Induction of cell membrane damage in human MCF7 cells assessed as protein leakage at 1 to 2 times IC50 measured after 0.5 to 6 hrs by UV based analysis; type: cell membranes; details: time 0.5-6 hrs
[30] = Toxicity in female Balb/c mouse implanted with mouse 4T1 cells assessed as pathological changes in lung at 12 micromol/kg, ip administered every other day for 2 weeks by H and E staining based analysis; type: organism-based; details: in vivo, 336 h, dose 12 µmol/kg
[31] = Toxicity in female Balb/c mouse implanted with mouse 4T1 cells assessed as pathological changes in kidney at 12 micromol/kg, ip administered every other day for 2 weeks by H and E staining based analysis; type: organism-based; details: in vivo, 336 h, dose 12 µmol/kg
[32] = Therapeutic index, ratio of HC10 for mouse RBC to IC50 for cytotoxicity against human A549 cells; type: toxicity, cell-based; details: mouse RBC and A549 cells, read-out: TI
Cell membrane [33] = test: Induction of morphological changes in cell membrane of human MCF7 cells assessed as cell depression at 1 times IC50 incubated for 1 hr by SEM analysis; type: cell membranes
MCF7 [34] = test: Induction of apoptosis in human MCF7 cells assessed as live cells at 1 times IC50 measured after 24 hrs by Annexin V-FITC staining based flow cytometry analysis (reference value: 92%); type: functional
Cell membrane [35] = test: Induction of morphological changes in cell membrane of human MCF7 cells assessed as membrane damage at 1 times IC50 incubated for 1 hr by SEM analysis; type: cell membranes
MCF7 [36] = test: Effect on cell cycle progression in human MCF7 cells at 1 times IC50 measured after 1 hr by PI/RNase staining based flow cytometry analysis; type: functional

SMILES | Activity (MCF7 [1]) | Activity (4T1) | IC50 [2] | Activity [3] | Activity (Cell membrane [4]) | Activity [5] | Activity (Cell membrane [6]) | Activity (MCF7 [7]) | Activity (MCF7 [8]) | Activity [9] | Activity [10] | Activity (MCF7 [11]) | Activity (Cell membrane [12]) | Activity [13] | Activity [14] | Activity (MCF7 [15]) | LD50 at 168 h [16] | selectivity ratio [17] | Activity (Cell membrane [18]) | Activity (Cell membrane [19]) | other results
CC(C)C[C@H](NC(=O)[C@H](CC(C)C)NC(=O)[C@H](CCCCN)NC(=O)[C@H](CCCCN)NC(=O)[C@H](CC(C)C)NC(=O)[C@H](CC(C)C)NC(=O)[C@H](CCCCN)NC(=O)[C@H](CCCCN)NC(=O)[C@H](CC(C)C)NC(=O)[C@H](CC(C)C)NC(=O)[C@H](CCCCN)NC(=O)[C@H](CCCCN)NC(=O)[C@H](CC(C)C)NC(=O)[C@@H](N)CC(C)C)C(N)=O (H-LLKKLLKKLLKKLL-NH2) | 19.2% | 28.4% | 6.41 µM | Non-Toxic | Active | Non-Toxic | Active | Active | ~30% | Non-Toxic | Non-Toxic | Active | 82% | Toxic | Non-Toxic | Active | 50.2 mg/kg | 2.27 | Tde | Active | Activity (Cell membrane [20]): Active; Activity (MCF7 [21]): ~50%; Activity (MCF7 [22]): Active; Activity [23]: Non-Toxic; Activity (MCF7 [24]): Active; Activity (Cell membrane [25]): Active; selectivity ratio [26]: 1.83; remaining at 12 h, 10000 µM [27]: 45.6%; Drug uptake [28]: Active; Activity (Cell membrane [29]): Active; Activity [30]: Non-Toxic; Activity [31]: Non-Toxic; selectivity ratio [32]: 2.96; Activity (Cell membrane [33]): Active; Activity (MCF7 [34]): 58.1%; Activity (Cell membrane [35]): Active; Activity (MCF7 [36]): inactive
CC(C)C[C@H](NC(=O)[C@H](CCCCN)NC(=O)[C@H](CCCCN)NC(=O)[C@H](CC(C)C)NC(=O)[C@H](CC(C)C)NC(=O)[C@H](CCCCN)NC(=O)[C@H](CCCCN)NC(=O)[C@H](CC(C)C)NC(=O)[C@H](CC(C)C)NC(=O)[C@H](CCCCN)NC(=O)[C@H](CCCCN)NC(=O)[C@H](CC(C)C)NC(=O)[C@@H](N)CC(C)C)C(=O)N[C@@H](CCCC(=O)O)C(N)=O (H-LLKKLLKKLLKKL[Aad]-NH2) | 13.8% | 52.4% | 20.1 µM | Non-Toxic | Active | Non-Toxic | Active | Active | ~30% | Non-Toxic | Non-Toxic | Active | 82.3% | Toxic | Non-Toxic | Active | 84 mg/kg | 16.3 | Tde | Active | Activity (Cell membrane [20]): Active; Activity (MCF7 [21]): ~50%; Activity (MCF7 [22]): Active; Activity [23]: Non-Toxic; Activity (MCF7 [24]): Active; Activity (Cell membrane [25]): Active; selectivity ratio [26]: 35.7; remaining at 12 h, 10000 µM [27]: 31.6%; Drug uptake [28]: Active; Activity (Cell membrane [29]): Active; Activity [30]: Non-Toxic; Activity [31]: Non-Toxic; selectivity ratio [32]: 24.9; Activity (Cell membrane [33]): Active; Activity (MCF7 [34]): 55.9%; Activity (Cell membrane [35]): Active; Activity (MCF7 [36]): inactive
CC(C)C[C@H](NC(=O)[C@H](CCCCN)NC(=O)[C@H](CCCCN)NC(=O)[C@H](CC(C)C)NC(=O)[C@H](CC(C)C)NC(=O)[C@H](CCCCN)NC(=O)[C@H](CCCCN)NC(=O)[C@H](CC(C)C)NC(=O)[C@H](CC(C)C)NC(=O)[C@H](CCCCN)NC(=O)[C@H](CCCCN)NC(=O)[C@H](CC(C)C)NC(=O)[C@@H](N)CC(C)C)C(=O)N[C@@H](CCC(=O)O)C(N)=O (H-LLKKLLKKLLKKLE-NH2) | 19.1% | 33.4% | 21.3 µM | Non-Toxic | Active | Non-Toxic | Active | Active | ~30% | Non-Toxic | Non-Toxic | Active | 74.1% | Toxic | Non-Toxic | Active | 79.9 mg/kg | 14.2 | Tde | Active | Activity (Cell membrane [20]): Active; Activity (MCF7 [21]): ~50%; Activity (MCF7 [22]): Active; Activity [23]: Non-Toxic; Activity (MCF7 [24]): Active; Activity (Cell membrane [25]): Active; selectivity ratio [26]: 32.1; remaining at 12 h, 10000 µM [27]: 28.6%; Drug uptake [28]: Active; Activity (Cell membrane [29]): Active; Activity [30]: Non-Toxic; Activity [31]: Non-Toxic; selectivity ratio [32]: 21.1; Activity (Cell membrane [33]): Active; Activity (MCF7 [34]): 57.2%; Activity (Cell membrane [35]): Active; Activity (MCF7 [36]): inactive

Reference: ChEMBL document CHEMBL5584231, “Rational design of a new short anticancer peptide with good potential for cancer treatment” (Eur J Med Chem, 2024)
